Experimental data as given in patent publication US12048680B2, “Use of Gemfibrozil and derivative thereof for treatment and/or prevention of neurodegenerative disease” (Kunming Institute of Zoology Chinese Academy of Sciences, priority 2018, dated 2024).

Test system: insoluble Aβ
Assay: ELISA of insoluble Aβ in mouse brain tissue
Type: in vivo
Conditions: hippocampus and cortex tissues, vs control group (C in FIG. 4)
Experimental: Gemfibrozil was administered to 8-month-old APP/PS1ΔE9 mice (male and female halves). Gemfibrozil was first dissolved in dimethyl sulfoxide (DMSO) at a concentration of 50 mg/mL, and then diluted to a final concentration of 50 μg/mL with mouse drinking water to obtain a drug solution. The mice in the administration group were allowed to freely drink the drug solution containing gemfibrozil, in which the final concentration of DMSO in the solution was 0.1%; and the mice in the control group were allowed to drink water containing 0.1% DMSO freely. All drinking devices contained with Gemfibrozil were wrapped in aluminum foil to prevent decomposition by exposure. During dosing, the drug solution was replaced every 2 days. Mice were measured daily for water consumption. After 2 months of dosing, all mice were subjected to behavioural experiments. Mice were placed in the laboratory to be behaviourally tested one hour prior to the start of daily behavioural studies, and all behavioural experiments were completed between 9 and 17 o'clock. All experiments involving animals were approved by Animal Ethics Committee of the Kunming Institute of Zoology, CAS. 8. Content of insoluble Aβ in mouse brain tissue by ELISA The content of insoluble Aβ in brain tissue was detected by an ELISA kit (Elabscience), and the experiment was performed according to the instructions of the ELISA kit.

Cc1ccc(C)c(OCCCC(C)(C)C(=O)O)c1 [Gemfibrozil, 2,2-dimethyl-5-(2,5-dimethylphenoxy) pentanoic acid]
amount of insoluble Aβ40: significantly reduced
amount of insoluble Aβ42: significantly reduced
ratio of insoluble Aβ42 and Aβ40: did not change significantly
